# Laboratory results reported in patent US20130012432A1, “Peptides for Treatment of Obesity” (Novo Nordisk A/S, priority 2010, published 2013).
# Positions of bridges follow the written chain, without caps; N, C: chain ends. Non-standard residues stand in square brackets, D forms with d. Residues, ends and D or L forms follow the SMILES beside them. Groups on a side chain read outwards from the residue. *: point of attachment. Palmitoyl(16-(5-tetrazolyl)) = O=C(CCCCCCCCCCCCCCCc1nnn[nH]1)*; Lys(CH2CO2H)2 = N[C@@H](CCCCN(CC(=O)O)CC(=O)O)C(=O)O; X1 = O=C(O)CCCCCCCCCCCCCCCCC(=O)NCCOCCOCCN*; C17 diacid = O=C(O)CCCCCCCCCCCCCCCC(=O)*; C16 diacid = O=C(O)CCCCCCCCCCCCCCC(=O)*; C14 diacid = O=C(O)CCCCCCCCCCCCC(=O)*; NTA = O=C(O)CN(CC(=O)O)CC(=O)*; hCys = N[C@@H](CCS)C(=O)O; Orn = NCCC[C@H](N)C(=O)O; Dab = NCC[C@H](N)C(=O)O; Dap = NC[C@H](N)C(=O)O; AEEA = NCCOCCOCC(=O)O
# Legend:
# MC1 receptor = MC1 receptor (Homo sapiens, UniProt Q01726); experiment: biochemical
# Chain of MC1 receptor (Q01726 whole entry): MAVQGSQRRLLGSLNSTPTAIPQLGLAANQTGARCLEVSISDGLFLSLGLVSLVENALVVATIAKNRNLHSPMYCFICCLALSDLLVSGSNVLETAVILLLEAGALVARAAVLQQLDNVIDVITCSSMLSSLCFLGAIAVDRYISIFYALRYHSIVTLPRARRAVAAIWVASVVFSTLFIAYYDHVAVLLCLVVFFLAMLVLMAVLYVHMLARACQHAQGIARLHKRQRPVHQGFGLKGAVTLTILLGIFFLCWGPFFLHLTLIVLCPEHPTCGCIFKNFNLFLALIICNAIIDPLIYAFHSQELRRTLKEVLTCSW
# Experimental: Assay (IV)—Melanocortin Receptor 1 (MC1) Binding Assay
# The MC1 receptor binding assay was performed on BHK cell membranes stably expressing the MC1 receptor. The assay was performed in a total volume of 250 μl: 25 μl of ^125NDP-α-MSH (22 pM in final concentration), 25 μl of test compound/control and 200 μl of cell membrane (25 μg/ml). Test compounds were dissolved in DMSO. Radioactively labeled ligand, membranes and test compounds were diluted in buffer: 25 mM HEPES, pH 7.4, 0.1 mM CaCl2, 1 mM MgSO4, 1 mM EDTA, 0.1% HSA and 0.005% Tween™ 20. Alternatively, HSA may be substituted with ovalbumin. The samples were incubated at 30° C. for 90 min. in Costar round-bottom microtiter plates. Incubation was terminated by filtration on a Packard harvester filtermate. Rapid filtration through Packard Unifilter-96 GF/B filters pre-treated with polyetylenimine (PerkinElmer 6005277). The filters were washed with ice-cold 0.9% NaCl 8-10 times. The plates were air-dried at app. 55° C. for 30 min, and 50 μl Microscint 0 (Packard, cat. No. 6013616) was added to each well. The plates were counted in a Topcounter (1 min/well).
# The data were analysed by non-linear regression analysis of binding curves, using the Windows™ program GraphPad™ Prism (GraphPad Software, USA).
# physchem = experiment: physchem
# Experimental: From a stock solution in vehicle, either H2O or 10 mM phosphate, containing 1 mg (as weighed) compound per ml, 8-11 aliquots are withdrawn and pH-adjusted individually with HCl/NaOH, to cover the whole pH range.
structure (smiles),measurement,setting,value
"CC(=O)N[C@H]1CCSSC[C@@H](C(=O)N2CCC[C@H]2C(=O)N2CCC[C@H]2C(=O)N[C@@H](CCCCN)C(=O)N[C@@H](CC(=O)O)C(=O)N[C@@H](CNC(=O)CN(CC(=O)O)CC(=O)O)C(=O)N[C@@H](CCCCNC(=O)COCCOCCNC(=O)CCCCCCCCCCCCCCCc2nnn[nH]2)C(=O)O)NC(=O)[C@H](Cc2c[nH]c3ccccc23)NC(=O)[C@H](CCCNC(=N)N)NC(=O)[C@@H](Cc2ccccc2)NC(=O)[C@H](Cc2c[nH]cn2)NC1=O [Example 4, Ac-c[homoCys-His-D-Phe-Arg-Trp-Cys]-Pro-Pro-Lys-Asp-Dap(BCMA)-Lys[(2-{2-[16-(tetrazol-5-yl)hexadecanoylamino]ethoxy}ethoxy)acetyl]-OH] (Ac-[hCys]H[dF]RWCPPKD[Dap](NTA)K([AEEA-Palmitoyl(16-(5-tetrazolyl))])-OH; disulfide 1-6)",Ki,MC1 receptor,> 10 µM
"CC(=O)N[C@H]1CCCCNC(=O)CC[C@@H](C(=O)N2CCC[C@H]2C(=O)N2CCC[C@H]2C(=O)N[C@@H](Cc2c[nH]cn2)C(=O)N[C@@H](CCC(=O)O)C(=O)N[C@@H](CCCCN(CC(=O)O)CC(=O)O)C(=O)N[C@@H](CCCCNC(=O)COCCOCCNC(=O)CCCCCCCCCCCCCCCC(=O)O)C(N)=O)NC(=O)[C@H](Cc2c[nH]c3ccccc23)NC(=O)[C@H](CCCNC(=N)N)NC(=O)[C@@H](Cc2ccccc2)NC(=O)[C@H](Cc2c[nH]cn2)NC1=O [Example 7, Ac-c[Lys-His-D-Phe-Arg-Trp-Glu]-Pro-Pro-His-Glu-Lys(biscarboxymethyl)-Lys({2-[2-(16-carboxyhexadecanoylamino)ethoxy]ethoxy}acetyl)-NH2] (Ac-KH[dF]RWEPPHE[Lys(CH2CO2H)2]K([AEEA-C17 diacid])-NH2; lactam 1-6)",solubility,"physchem; pH 5.8, Solubility Conc.",121 µM
same,solubility,"physchem; pH 6.3, Solubility Conc.",173 µM
same,solubility,"physchem; pH 6.6, Solubility Conc.",295 µM
same,solubility,"physchem; pH 6.7, Solubility Conc.",408 µM
same,solubility,"physchem; pH 6.9, Solubility Conc.",434 µM
same,solubility,"physchem; pH 7.2, Solubility Conc.",417 µM
same,solubility,"physchem; pH 7.4, Solubility Conc.",438 µM
same,solubility,"physchem; pH 7.6, Solubility Conc.",448 µM
same,solubility,"physchem; pH 8, Solubility Conc.",436 µM
same,Ki,MC1 receptor,> 10 µM
"CC(=O)N[C@H]1CCNC(=O)C[C@@H](C(=O)N2CCC[C@H]2C(=O)N2CCC[C@H]2C(=O)N[C@@H](CCCNC(=N)N)C(=O)N[C@@H](CCC(=O)O)C(=O)N[C@@H](CCCCN(CC(=O)O)CC(=O)O)C(=O)N[C@@H](CO)C(=O)N[C@@H](CO)C(=O)NCCOCCOCCNC(=O)CCCCCCCCCCCCCCCCC(=O)O)NC(=O)[C@H](Cc2c[nH]c3ccccc23)NC(=O)[C@H](CCCNC(=N)N)NC(=O)[C@@H](Cc2ccccc2)NC(=O)[C@H](Cc2c[nH]cn2)NC1=O [Example 9, Ac-c[Dab-His-D-Phe-Arg-Trp-Asp]-Pro-Pro-Arg-Glu-Lys(biscarboxymethyl)-Ser-Ser-NH(2-{2-[2-(17-carboxyheptadecanoylamino)ethoxy]ethoxy}ethyl)] (Ac-[Dab]H[dF]RWDPPRE[Lys(CH2CO2H)2]SS-X1; lactam 1-6)",solubility,"physchem; pH 4.7, Solubility Conc.",26 µM
same,solubility,"physchem; pH 5.2, Solubility Conc.",22 µM
same,solubility,"physchem; pH 5.3, Solubility Conc.",40 µM
same,solubility,"physchem; pH 6.6, Solubility Conc.",79 µM
same,solubility,"physchem; pH 7.3, Solubility Conc.",158 µM
same,solubility,"physchem; pH 7.4, Solubility Conc.",183 µM
same,solubility,"physchem; pH 7.7, Solubility Conc.",242 µM
same,solubility,"physchem; pH 7.9, Solubility Conc.",259 µM
same,solubility,"physchem; pH 8.2, Solubility Conc.",280 µM
same,Ki,MC1 receptor,> 10 µM
"CC(=O)N[C@H]1CCCNC(=O)C[C@@H](C(=O)N2CCC[C@H]2C(=O)N2CCC[C@H]2C(=O)N[C@@H](Cc2c[nH]cn2)C(=O)N[C@@H](CCC(=O)O)C(=O)N[C@@H](CCCCN(CC(=O)O)CC(=O)O)C(=O)N[C@@H](CCCCNC(=O)COCCOCCNC(=O)CCCCCCCCCCCCCCCc2nnn[nH]2)C(N)=O)NC(=O)[C@H](Cc2c[nH]c3ccccc23)NC(=O)[C@H](CCCNC(=N)N)NC(=O)[C@@H](Cc2ccccc2)NC(=O)[C@H](Cc2c[nH]cn2)NC1=O [Example 10, Ac-c[Orn-His-D-Phe-Arg-Trp-Asp]-Pro-Pro-His-Glu-Lys(biscarboxymethyl)-Lys[(2-{2-[16-(tetrazol-5-yl)hexadecanoylamino]ethoxy}ethoxy)acetyl]-NH2] (Ac-[Orn]H[dF]RWDPPHE[Lys(CH2CO2H)2]K([AEEA-Palmitoyl(16-(5-tetrazolyl))])-NH2; lactam 1-6)",solubility,"physchem; pH 6, Solubility Conc.",35 µM
same,solubility,"physchem; pH 6.4, Solubility Conc.",88 µM
same,solubility,"physchem; pH 6.6, Solubility Conc.",287 µM
same,solubility,"physchem; pH 6.7, Solubility Conc.",514 µM
same,solubility,"physchem; pH 7, Solubility Conc.",517 µM
same,solubility,"physchem; pH 7.3, Solubility Conc.",517 µM
same,solubility,"physchem; pH 7.4, Solubility Conc.",516 µM
same,solubility,"physchem; pH 7.7, Solubility Conc.",521 µM
same,solubility,"physchem; pH 8, Solubility Conc.",531 µM
same,Ki,MC1 receptor,> 10 µM
"CC(=O)N[C@H]1CCCCNC(=O)C[C@@H](C(=O)N2CCC[C@H]2C(=O)N2CCC[C@H]2C(=O)N[C@@H](CCCNC(=N)N)C(=O)N[C@@H](CC(=O)O)C(=O)N[C@@H](CCCCN(CC(=O)O)CC(=O)O)C(=O)N[C@@H](CCCCNC(=O)COCCOCCNC(=O)CCCCCCCCCCCCCCCc2nnn[nH]2)C(N)=O)NC(=O)[C@H](Cc2c[nH]c3ccccc23)NC(=O)[C@H](CCCNC(=N)N)NC(=O)[C@@H](Cc2ccccc2)NC(=O)[C@H](Cc2c[nH]cn2)NC1=O [Example 11, Ac-c[Lys-His-D-Phe-Arg-Trp-Asp]-Pro-Pro-Arg-Asp-Lys(biscarboxymethyl)-Lys[(2-{2-[16-(tetrazol-5-yl)hexadecanoylamino]ethoxy}ethoxy)acetyl]-NH2] (Ac-KH[dF]RWDPPRD[Lys(CH2CO2H)2]K([AEEA-Palmitoyl(16-(5-tetrazolyl))])-NH2; lactam 1-6)",solubility,"physchem; pH 4.8, Solubility Conc.",51 µM
same,solubility,"physchem; pH 5.3, Solubility Conc.",29 µM
same,solubility,"physchem; pH 6, Solubility Conc.",25 µM
same,solubility,"physchem; pH 6.4, Solubility Conc.",36 µM
same,solubility,"physchem; pH 7, Solubility Conc.",147 µM
same,solubility,"physchem; pH 7.2, Solubility Conc.",364 µM
same,solubility,"physchem; pH 7.3, Solubility Conc.",479 µM
same,solubility,"physchem; pH 7.6, Solubility Conc.",472 µM
same,solubility,"physchem; pH 7.8, Solubility Conc.",479 µM
same,Ki,MC1 receptor,> 10 µM
"CC(=O)N[C@H]1CSSC[C@@H](C(=O)N2CCC[C@H]2C(=O)N2CCC[C@H]2C(=O)N[C@@H](CCCCN)C(=O)N[C@@H](CCC(=O)O)C(=O)N[C@@H](CCCCN(CC(=O)O)CC(=O)O)C(=O)N[C@@H](CCCCNC(=O)COCCOCCNC(=O)CCCCCCCCCCCCCCC(=O)O)C(N)=O)NC(=O)CNC(=O)[C@H](Cc2c[nH]c3ccccc23)NC(=O)[C@H](CCCNC(=N)N)NC(=O)[C@@H](Cc2ccccc2)NC(=O)[C@H](Cc2c[nH]cn2)NC(=O)[C@H](CCC(=O)O)NC1=O [Example 59, Ac-c[Cys-Glu-His-D-Phe-Arg-Trp-Gly-Cys]-Pro-Pro-Lys-Glu-Lys(biscarboxymethyl)-Lys({2-[2-(15-carboxypentadecanoylamino)ethoxy]ethoxy}acetyl)-NH2] (Ac-CEH[dF]RWGCPPKE[Lys(CH2CO2H)2]K([AEEA-C16 diacid])-NH2; disulfide 1-8)",Ki,MC1 receptor,> 10 µM
"CC(=O)N[C@H]1CCSSC[C@@H](C(=O)N2CCC[C@H]2C(=O)N2CCC[C@H]2C(=O)N[C@@H](CCCCN)C(=O)N[C@@H](CC(=O)O)C(=O)N[C@@H](CCCCNC(=O)CN(CC(=O)O)CC(=O)O)C(=O)N[C@@H](CCCCNC(=O)COCCOCCNC(=O)CCCCCCCCCCCCCCCc2nnn[nH]2)C(N)=O)NC(=O)[C@H](Cc2c[nH]c3ccccc23)NC(=O)[C@H](CCCNC(=N)N)NC(=O)[C@@H](Cc2ccccc2)NC(=O)[C@H](Cc2c[nH]cn2)NC1=O [Example 65, Ac-c[homoCys-His-D-Phe-Arg-Trp-Cys]-Pro-Pro-Lys-Asp-Lys(BCMA)-Lys[(2-{2-[16-(tetrazol-5-yl)hexadecanoylamino]ethoxy}ethoxy)acetyl]-NH2] (Ac-[hCys]H[dF]RWCPPKDK(NTA)K([AEEA-Palmitoyl(16-(5-tetrazolyl))])-NH2; disulfide 1-6)",Ki,MC1 receptor,> 10 µM
"CC(=O)N[C@H]1CCSSC[C@@H](C(=O)N2CCC[C@H]2C(=O)N2CCC[C@H]2C(=O)N[C@@H](CCCCN)C(=O)N[C@@H](CC(=O)O)C(=O)N[C@@H](CNC(=O)CN(CC(=O)O)CC(=O)O)C(=O)N[C@@H](CCCCNC(=O)COCCOCCNC(=O)CCCCCCCCCCCCC(=O)O)C(N)=O)NC(=O)[C@H](Cc2c[nH]c3ccccc23)NC(=O)[C@H](CCCNC(=N)N)NC(=O)[C@@H](Cc2ccccc2)NC(=O)[C@H](Cc2c[nH]cn2)NC1=O [Example 69, Ac-c[homoCys-His-D-Phe-Arg-Trp-Cys]-Pro-Pro-Lys-Asp-Dap(BCMA)-Lys({2-[2-(13-carboxytridecanoylamino)ethoxy]ethoxy}acetyl)-NH2] (Ac-[hCys]H[dF]RWCPPKD[Dap](NTA)K([AEEA-C14 diacid])-NH2; disulfide 1-6)",Ki,MC1 receptor,> 10 µM
